Assay results from paper PMC12149313 (Cell Death & Disease, 2025).

System: T1, β-tubulin
T1 construct: gene TUBB
Assay: ITDR-CETSA of β-tubulin at […] °C in CFPAC-1 COMT-/- cells
Format: cell-based

CNc1nc2ccccc2n2c(-c3ccc(OC)c(O)c3)cnc12 [EAPB04303]
EC50: 3000 ± 2000 nM
